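Each compound was tested at five concentrations against cells in 96-well plates for 48 hours. Abbreviation: GI50, concentration required for 50% inhibition of growth.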 Active and inactive are the calls of the source. Cut-off read from the data, not from the text of the source: active = GI50 up to about 1.1 µM and inactive = higher.
Legend:
Assay in all cases: DTP human tumour cell line panel, 48 h
LOX IMVI = test system: LOX IMVI
HCT-116 = test system: HCT-116
HCT-15 = test system: HCT-15
PC-3 = test system: PC-3
ACHN = test system: ACHN
UO-31 = test system: UO-31
786-0 = test system: 786-0
HCC 2998 = test system: HCC 2998
MDA-MB-231 = test system: MDA-MB-231
SN12C = test system: SN12C
NCI-H23 = test system: NCI-H23
SF-268 = test system: SF-268
OVCAR-8 = test system: OVCAR-8
KM12 = test system: KM12
NCI/ADR-RES = test system: NCI/ADR-RES
SNB-75 = test system: SNB-75
CCRF-CEM = test system: CCRF-CEM
MOLT-4 = test system: MOLT-4
K562 = test system: K562
NCI-H226 = test system: NCI-H226

Compound: COc1cccc(N2N=C3c4ccccc4-n4c(nc5ccccc54)C3C2N)c1 (configuration not stated)
- GI50 (LOX IMVI): > 100 µM (inactive)
- GI50 (HCT-116): > 100 µM (inactive)
- GI50 (HCT-15): > 100 µM
- GI50 (PC-3): > 100 µM (inactive)
- GI50 (ACHN): > 100 µM (inactive)
- GI50 (UO-31): > 100 µM (inactive)
- GI50 (786-0): > 100 µM (inactive)
- GI50 (HCC 2998): > 100 µM (inactive)
- GI50 (MDA-MB-231): 92.3 µM (inactive)
- GI50 (SN12C): > 100 µM (inactive)
- GI50 (NCI-H23): > 100 µM (inactive)
- GI50 (SF-268): > 100 µM (inactive)
- GI50 (OVCAR-8): > 100 µM (inactive)
- GI50 (KM12): > 100 µM (inactive)
- GI50 (NCI/ADR-RES): > 100 µM (inactive)
- GI50 (SNB-75): > 100 µM (inactive)

Compound: O=C(c1ccccc1)c1ccc(N2C(=O)/C(=C/c3cccc(Oc4ccccc4)c3)N=C2c2ccccc2)c(N2C(=O)/C(=C/c3cccc(Oc4ccccc4)c3)N=C2c2ccccc2)c1
- GI50 (CCRF-CEM): 8.32 µM (inactive)
- GI50 (LOX IMVI): 32.9 µM (inactive)
- GI50 (HCT-116): 36.1 µM (inactive)
- GI50 (HCT-15): 21.2 µM
- GI50 (PC-3): 26.5 µM (inactive)
- GI50 (ACHN): 53 µM (inactive)
- GI50 (UO-31): 33.3 µM (inactive)
- GI50 (786-0): 31.5 µM (inactive)
- GI50 (HCC 2998): 20 µM (inactive)
- GI50 (MDA-MB-231): 45.8 µM (inactive)
- GI50 (SN12C): 92.3 µM (inactive)
- GI50 (NCI-H23): 29.6 µM (inactive)
- GI50 (SF-268): 36.3 µM (inactive)
- GI50 (OVCAR-8): 32.1 µM (inactive)
- GI50 (MOLT-4): 11.9 µM (inactive)
- GI50 (KM12): 24.5 µM (inactive)
- GI50 (NCI/ADR-RES): 18.5 µM (inactive)
- GI50 (K562): 9.42 µM (inactive)
- GI50 (SNB-75): 23.9 µM (inactive)

Compound: C[C@]12CC[C@H](O)CC1=CC[C@@H]1[C@@H]2CC[C@]2(C)C(=N/O)/C(=C/c3ccc([N+](=O)[O-])cc3)C[C@@H]12
- GI50 (CCRF-CEM): 5.94 µM (inactive)
- GI50 (LOX IMVI): 8.34 µM (inactive)
- GI50 (HCT-116): 3.93 µM (inactive)
- GI50 (HCT-15): 4.78 µM
- GI50 (PC-3): 3.22 µM (inactive)
- GI50 (ACHN): 4.13 µM (inactive)
- GI50 (UO-31): 8.22 µM (inactive)
- GI50 (786-0): 3.03 µM (inactive)
- GI50 (NCI-H226): 1.16 µM (inactive)
- GI50 (HCC 2998): 2.37 µM (inactive)
- GI50 (SN12C): 3.08 µM (inactive)
- GI50 (NCI-H23): 5.94 µM (inactive)
- GI50 (SF-268): 10.9 µM (inactive)
- GI50 (OVCAR-8): 2.82 µM (inactive)
- GI50 (MOLT-4): 3.66 µM (inactive)
- GI50 (KM12): 0.841 µM (active)
- GI50 (NCI/ADR-RES): 6.03 µM (inactive)
- GI50 (K562): 3.3 µM (inactive)
- GI50 (SNB-75): 4.32 µM (inactive)

Compound: CC(CCc1ccccc1)NCC(O)n1c(/N=N/N(C)C)nc2c1c(=O)n(C)c(=O)n2C (configuration not stated)
- GI50 (CCRF-CEM): > 100 µM (inactive)
- GI50 (LOX IMVI): > 100 µM (inactive)
- GI50 (HCT-116): > 100 µM (inactive)
- GI50 (HCT-15): > 100 µM
- GI50 (PC-3): > 100 µM (inactive)
- GI50 (ACHN): > 100 µM (inactive)
- GI50 (UO-31): > 100 µM (inactive)
- GI50 (786-0): > 100 µM (inactive)
- GI50 (NCI-H226): > 100 µM (inactive)
- GI50 (MDA-MB-231): > 100 µM (inactive)
- GI50 (NCI-H23): > 100 µM (inactive)
- GI50 (SF-268): > 100 µM (inactive)
- GI50 (OVCAR-8): > 100 µM (inactive)
- GI50 (MOLT-4): > 100 µM (inactive)
- GI50 (KM12): > 100 µM (inactive)
- GI50 (NCI/ADR-RES): > 100 µM (inactive)
- GI50 (K562): > 100 µM (inactive)
- GI50 (SNB-75): 9.62 µM (inactive)

Compound: CCO/C(=N/S(=O)(=O)C(F)(F)F)N(C(C)C)C(C)C
- GI50 (CCRF-CEM): > 100 µM (inactive)
- GI50 (LOX IMVI): > 100 µM (inactive)
- GI50 (HCT-116): > 100 µM (inactive)
- GI50 (HCT-15): > 100 µM
- GI50 (PC-3): > 100 µM (inactive)
- GI50 (ACHN): > 100 µM (inactive)
- GI50 (786-0): > 100 µM (inactive)
- GI50 (MDA-MB-231): > 100 µM (inactive)
- GI50 (SN12C): > 100 µM (inactive)
- GI50 (NCI-H23): > 100 µM (inactive)
- GI50 (SF-268): > 100 µM (inactive)
- GI50 (OVCAR-8): > 100 µM (inactive)
- GI50 (MOLT-4): > 100 µM (inactive)
- GI50 (KM12): > 100 µM (inactive)
- GI50 (NCI/ADR-RES): > 100 µM (inactive)

Compound: OCCCCCCOc1ccc(-c2cc(-c3ccccn3)nc(-c3ccccn3)c2)cc1
- GI50 (CCRF-CEM): 0.026 µM (active)
- GI50 (LOX IMVI): 0.117 µM (active)
- GI50 (HCT-116): 0.132 µM (active)
- GI50 (HCT-15): 0.109 µM
- GI50 (PC-3): 0.034 µM (active)
- GI50 (ACHN): 0.108 µM (active)
- GI50 (UO-31): 0.202 µM (active)
- GI50 (786-0): 0.0944 µM (active)
- GI50 (NCI-H226): 0.104 µM (active)
- GI50 (HCC 2998): 0.187 µM (active)
- GI50 (SN12C): 0.424 µM (active)
- GI50 (NCI-H23): 0.604 µM (active)
- GI50 (SF-268): 0.0668 µM (active)
- GI50 (OVCAR-8): 0.136 µM (active)
- GI50 (MOLT-4): 0.0274 µM (active)
- GI50 (KM12): 0.388 µM (active)
- GI50 (K562): 0.0728 µM (active)
- GI50 (SNB-75): 0.637 µM (active)

Compound: CCn1c(-c2ccccc2)nc2c1C(=O)c1ccccc1C2=O
- GI50 (CCRF-CEM): 18.4 µM (inactive)
- GI50 (HCT-116): 21.7 µM (inactive)
- GI50 (HCT-15): 17.1 µM
- GI50 (PC-3): 10.2 µM (inactive)
- GI50 (786-0): 84.9 µM (inactive)
- GI50 (NCI-H226): 24.4 µM (inactive)
- GI50 (HCC 2998): 18.2 µM (inactive)
- GI50 (SN12C): 20.7 µM (inactive)
- GI50 (NCI-H23): 21.8 µM (inactive)
- GI50 (OVCAR-8): 14 µM (inactive)
- GI50 (MOLT-4): 14.7 µM (inactive)
- GI50 (KM12): 22.7 µM (inactive)
- GI50 (NCI/ADR-RES): 13.3 µM (inactive)
- GI50 (K562): 25.9 µM (inactive)

Compound: Nc1nc(O)c2nc(CNc3ccc(C(=O)NC(CCC(=O)O)C(=O)O)cc3)cnc2n1 (configuration not stated)
- GI50 (CCRF-CEM): > 100 µM (inactive)
- GI50 (LOX IMVI): > 100 µM (inactive)
- GI50 (HCT-15): > 100 µM
- GI50 (PC-3): > 100 µM (inactive)
- GI50 (ACHN): > 100 µM (inactive)
- GI50 (UO-31): > 100 µM (inactive)
- GI50 (786-0): > 100 µM (inactive)
- GI50 (NCI-H226): > 100 µM (inactive)
- GI50 (HCC 2998): > 100 µM (inactive)
- GI50 (SN12C): > 100 µM (inactive)
- GI50 (NCI-H23): > 100 µM (inactive)
- GI50 (SF-268): > 100 µM (inactive)
- GI50 (OVCAR-8): > 100 µM (inactive)
- GI50 (MOLT-4): > 100 µM (inactive)
- GI50 (KM12): > 100 µM (inactive)
- GI50 (NCI/ADR-RES): > 100 µM (inactive)
- GI50 (K562): > 100 µM (inactive)
- GI50 (SNB-75): 0.9 µM (active)

Source: ChEMBL document CHEMBL1201862, “PubChem BioAssay data set” (2004)
